Experimental data from publication PMC9014415, “Repositioning of a Diaminothiazole Series Confirmed to Target the Cyclin-Dependent Kinase CRK12 for Use in the Treatment of African Animal Trypanosomiasis” (Journal of Medicinal Chemistry, 2022).

Assays:
[1] = Mouse liver microsome stability; assay type: in vitro ADME; conditions: intrinsic clearance
Protocol: solubility method,5 the long shaking times appear to give solubility values that more closely reflect those made from solid samples (unpublished in-house data).
2.2 Microsomal stability studies
(a) Mouse liver microsome stability. These methods have been previously reported.6
(b) Bovine liver microsome stability. Test compounds (0.5 µM) were incubated with 0.5 mg/mL bovine liver microsomes (Xenotech LLC TM) in 50 mM potassium phosphate buffer, pH7.4 and the reaction initiated upon addition of excess NADPH (8 mg/mL in 50 mM potassium phosphate buffer, pH7.4).
Aliquots (50 µL) of the incubation mixture were taken at time zero, 3, 6, 9, 15 and 30 min then mixed with acetonitrile (100 µL) to stop the reaction. An internal standard was added to all samples, prior to centrifugation (10 min, 1,665 g, RT) to sediment precipitated protein. Reaction plates were then sealed prior to UPLCMSMS analysis using a Quattro Premier XE (Waters corporation, USA).
XLfit (IDBS, UK) was used to calculate the exponential decay and consequently the rate constant (k) from the ratio of peak area of test compound to internal standard at each timepoint. The rate of intrinsic clearance (CLi) of each test compound was then calculated using the following […]
CLi(mL/min/g liver) = k x V x microsomal protein yield […]

[2] = tested on: T. brucei CRK12 (Tb927.11.12310) edited parasites; experiment: Sensitivity of CRISPR-Cas9-edited CRK12 T. brucei compared to wild-type; assay type: cell-based, Trypanosoma brucei
Text: Three unbiased and independent approaches converged to identify CRK12 as the likely target of compound 2. Next, we used CRISPR-Cas9 precision base editing to interrogate the role of CRK12-related mutations in resistance.[16] A codon-targeted saturation mutagenesis strategy was used to investigate mutations that could support resistance to compound 2 at positions 482 or 492. This was achieved using repair templates randomized (NNN) in these specific positions. […] These edited parasites were 133-fold less sensitive to compound 2 compared to wild-type parasites. In contrast, several different amino acids (Ile, Gln, Met, and Val) were tolerated in position 492. Each mutation conferred differing levels of resistance to compound 2, for instance, parasites bearing a Gly492Val edit were eightfold more tolerant to the compound than wild-type cells, while a Gly492Gln mutation led to 32-fold resistance (Figure 4B); parasites bearing a Gly492Ile or a Gly492Met edit behaved similarly to parasites bearing a Gly492Gln edit. […] This is most likely explained by the pronounced growth defect associated with all three of our resistant clones (R1–3) that harbor this specific mutation. […]
overall quality score (QUAL) was >100. Artemis13 was used to analyse chromosome and gene copy number variation (CNV), as well as visualisation of SNPs.
4.3 RIT-seq screening, Illumina sequencing and analysis
The RIT-seq library screening was performed as described previously.14 The RNAi library was maintained with blasticidin (1 µg ml-1) and phleomycin (1 µg ml-1) at a minimum of 2 x 10^7 cells. […]
Reads were mapped to the T. brucei 927 reference genome (v39; TriTrypDB [http://tritrypdb.org/]) using Bowtie 2 software,10 with the following parameter: --very-sensitive-local. Following manipulation with SAMtools11 the alignment files were searched with a custom script to identify reads with the following barcode: GCCTCGCGA.14 The total and barcoded reads were then quantified using the Artemis genome browser.15 […]

## CC(C)CS(=O)(=O)N[C@H]1CC[C@H](Nc2nc(N)c(C(=O)c3c(F)cccc3F)s2)CC1 [Compound 1, N-((trans)-4-((4-Amino-5-(2,6-difluorobenzoyl)thiazol-2-yl)amino)cyclohexyl)-2-methylpropane-1-sulfonamide]
[1]
  Mouse Microsome Cli: 11 mL/min/g

## CC(C)CS(=O)(=O)N[C@H]1CC[C@H](Nc2nc(N)c(C(=O)c3c(F)cc(CN(C)C)cc3F)s2)CC1 [Compound 2, N-(trans)-[4-[[4-Amino-5-[4-(dimethylaminomethyl)-2,6-difluoro-benzoyl]thiazol-2-yl]amino]cyclohexyl]-2-methyl-propane-1-sulfonamide]
[2]; CRK12 Gly492Gln edit
  Resistance compared to wild-type: 32 fold
[2]; CRK12 Gly492Val edit
  Tolerance compared to wild-type: eightfold
[2]; CRK12 Leu482Phe edit
  Loss of sensitivity compared to wild-type: 133 fold
